Assay results as given in patent US20190046490A1, “METHODS OF TREATING LACTOSE INTOLERANCE” (Nogra Pharma Limited, priority 2016, published 2019).
Entries after “also recorded” stand apart in the source; their conditions may differ.

How the values were obtained:
[1] = system: LCT mRNA; assay: Quantitative PCR of LCT mRNA expression in Caco-2 cells; assay type: cell-based, human; settings: for LCT mRNA expression relative to control (qPCR): 24 hours, normalized to GAPDH
Method: (§1) Caco-2 (colonic adenocarcinoma) cells were grown in Dulbecco's Modified Eagle's Medium (DMEM, Invitrogen, Life Technologies, Cergy-Pontoise, France) supplemented with 20% foetal calf serum (FCS, Dutscher, Brumath, France), 1% penicillin-streptomycin (5 ml/l) (Invitrogen, Life technologies) and 1% non-essential amino acids (5 ml/l) (Invitrogen, Life technologies). All cell lines were cultured as confluent monolayers at 37° C. in a controlled, 5% CO2 atmosphere.
(§2) For cell stimulations, 1×10^6 cells per well were seeded in 6-well plates. Cells were serum deprived for 16 hours prior to stimulation in order to synchronize the cells. Cells were treated with GED (Nogra Pharma Ltd, Ireland), pioglitazone (1 μM, Sigma-Aldrich) or CLA (various concentrations, Sigma-Aldrich). When necessary, the DMSO vehicle (Sigma-Aldrich) was used as control. After 24 hours of stimulation, cells were washed three times with sterile PBS before RNA extraction. Cell stimulations were performed in 4 replicates for microarray analysis and in 3, 4 or 6 replicates for other stimulations.
(§3) Cells were lysed with lysis buffer (RA1, Macherey-Nagel) containing 1% β-mercaptoethanol. Total RNA was extracted with a Nucleospin RNA kit (Macherey-Nagel, Hoerdt, France). After RNAse inactivation, total RNA was cleaned of genomic DNA traces by DNAse treatment and eluted in RNAse-free, DEPC-water. The purity of the RNA was evaluated by UV spectroscopy on a Nanodrop system (Nyxor Biotech, Paris, France) from 220 to 350 nm. Before microarray experiments, RNAs were also profiled on an Agilent 2100 bioanalyzer. One μg of total RNA with a minimum concentration of 50 ng/μl was used in the microarray and qRT-PCR analysis.
(§4) Expression of genes of interest was quantified by quantitative PCR (qPCR) of corresponding reverse transcribed mRNA. One μg of total RNA was reverse-transcribed into cDNA using the High Capacity cDNA Archive kit (Applied Biosystems). Amplification was performed using an ABI PRISM 7000 sequence detection system (Applied Biosystem) using Power SYBR® Green PCR master Mix (Applied Biosystem). Primer pairs for each human transcript were chosen with qPrimer depot software (at primerdepot.nci.nih.gov.). Quantification of qPCR signals was performed using ΔCt relative quantification method using GAPDH as a reference gene for human and rat samples and β-Actin for mouse samples. Values were represented in terms of relative quantity of mRNA level variation or fold increase compared to control conditions.

[2] = system: LCT gene; assay: Transcriptome microarray analysis of LCT mRNA expression in Caco-2 cells treated with PPARγ modulators; assay type: cell-based, human; settings: vs unstimulated cells
Method: as §1, §2, §3
Dual-colour gene expression microarrays were used to compare the cRNA from the samples. 44,000 genes were screened. The RNAs from the samples were first reverse-transcribed into cDNA (Affinity-Script RT, Agilent), which were then used as the substrate for the synthesis and amplification of cRNA by T7 RNA polymerase in the presence of cyanine 3-CTP for the CTL sample (green fluorescence) and cyanine 5-CTP for the PPAR-γ y modulator sample (red fluorescence). The two-labelled cRNAs were mixed, hybridized on the same array (G4851A Agilent 8×44K) and then scanned (with an Agilent G2505B scanner). Fluorescence was visualized after laser excitation and the relative intensities of the two fluorophores were expressed as a ratio, in order to yield the over- or under-expression status of each gene (using GeneSpring software (Agilent)). This analysis was performed for each PPAR-γ modulator.

[3] = system: LCT activity; assay: Lactase activity in Caco-2 cells (glucose oxidase method); assay type: cell-based, human
Method: (§5) Lactase activity was evaluated by using a glucose oxidase method (Glucose Assay Kit, Sigma). This lactase assay is based on the measurement of the amount of glucose produced following the action of lactase by incubating samples with a lactose buffer solution (0.056 mol/l lactose in a 0.1 mol/l Na-maleate buffer). For Caco-2 cells, lactase activity was determined directly from the cell monolayer. After extensive washing, the cell monolayer was incubated with lactose buffer for one hour at 37° C. The supernatant was recovered, 50 μl were diluted with 100 μl of glucose oxidase reagent and incubated at 37° C. for 1 hour. The reaction was stopped with 100 μl of H2SO4 and read by spectrophotometry at 450 nm. When lactase activity was determined from intestinal sample, tissue samples were first dounce-homogenized in 0.9% NaCl on crushed ice. These homogenates were then diluted in 0.9% NaCl ( 1/500) and 50 μl of dilution were incubated with lactose buffer and used to determine lactase activity. For each experiment, the background attributed to the remaining glucose in the samples was measured by incubating cells or cell extracts in lactose-free buffer.

[4] = system: LCT in PPARγ knock-down Caco-2 cells; assay: LCT expression and activity in PPARγ knock-down Caco-2 cells (ShPPAR); assay type: cell-based, human; settings: ShPPAR vs ShLuc Caco-2 cells, 250-1000 μM
Method: as §4
Lactase activity was evaluated by using a glucose oxidase method (Glucose Assay Kit, Sigma). […] For Caco-2 cells, lactase activity was determined directly from the cell monolayer. […] The reaction was stopped with 100 μl of H2SO4 and read by spectrophotometry at 450 nm. When lactase activity was determined from intestinal sample, tissue samples were first dounce-homogenized in 0.9% NaCl on crushed ice. […] For each experiment, the background attributed to the remaining glucose in the samples was measured by incubating cells or cell extracts in lactose-free buffer. […]

[5] = system: PPARγ mRNA; assay: PPARγ mRNA in duodenum and jejunum of rats after 5 days oral gavage; assay type: in vivo, Sprague Dawley rats; settings: 200 mg/kg/day oral gavage 5 days
Method: as §4
(§6) To determine whether CLA induces LCT expression and activity in vivo, Sprague Dawley rats were fed a control diet and administered either carboxymethyl cellulose (CMC; 0.5%), CLA, or GED for 5 days, after which levels of PPARγ mRNA, LCT mRNA, and LCT activity were measured. CLA was administered at 200 mg/kg/day by oral gavage, and GED was administered at 30 mg/kg/day by oral gavage (FIG. 21A).

[6] = system: LCT; assay: LCT mRNA and LCT activity in duodenum and jejunum of rats after 5 days oral gavage; assay type: in vivo, Sprague Dawley rats; settings: oral gavage 5 days, GED 30 mg/kg/day, CLA 200 mg/kg/day
Method: as §4, §5, §6

[7] = system: Caco-2 cells; assay: Glucose uptake assay (2-DG6P) in Caco-2 cells; assay type: cell-based, human; settings: 1 μM, 24 h
Method: Glucose uptake was evaluated by using the glucose uptake colorimetric assay kit (Sigma-Aldrich) according to the manufacturer's instructions. Briefly, Caco-2 cells were seeded into a 96-well plate at a density of 30,000 cells per well. Cells were serum deprived for 16 hours prior to stimulation in order to synchronize the cells. Cells were treated with GED (1 mM) or pioglitazone (1 μM) for 24 h. Cells were then washed 3 times with PBS and were glucose-starved by incubating with 100 μl of KRPH buffer (Krebs-Ringer-Phosphate-HEPES (KRPH) Buffer—20 mM HEPES, 5 mM KH2PO4, 1 mM MgSO4, 1 mM CaCl2, 136 mM NaCl, and 4.7 mM KCl, pH 7.4) containing 2% BSA for 40 minutes. 10 μl of 2-deoxyglucose (2-DG; 10 mM) was then added and incubation was continued for 20 minutes. 2-DG is taken up by the cells and phosphorylated by hexokinase to 2-DG6P, which cannot be further metabolized and accumulates in cells. Following incubation, cells were washed 3 times with PBS and lysed with 80 μl of the extraction buffer provided. The amount of 2-DG6P (which is directly proportional to glucose uptake by the cells) was determined by a colorimetric detection assay according to the manufacturer's protocol.

For `Nc1ccc(O)c(C(=O)O)c1` [5ASA, 5-aminosalicylic acid], which “LCT mRNA expression relative to control (qPCR)” value ([1]; 30 mM) is on record?
Its value is “Significant increases; also recorded: induction”.

What about the “Fold Lactase RNA” value ([2]; 30 mM) of the same compound?
The value was 8.7 fold.

What about the “LCT activity relative to control cells” value ([3]; Caco-2 cells, 30 mM) of the same compound?
The value was “not”.

How did the “CLA-dependent induction of LCT activity in PPARγ knock-down cells” value [4] turn out when `CCCCC/C=C\C=C\CCCCCCCCC(=O)O` [CLA, trans-10, cis-12 conjugated linoleic acid (CLA) isomer] was run?
Its value is “strongly compromised”.

What about the “CLA-dependent induction of LCT expression in PPARγ knock-down cells” value [4] of the same compound?
The value was “strongly compromised”.

And the “PPARγ mRNA expression levels in duodenum relative to CMC control” value [5]?
Its value is “significant increase”.

What about the “PPARγ mRNA expression levels in jejunum relative to CMC control” value [5] of the same compound?
The value was “significant increase”.

What about the “LCT activity in duodenal tissue compared to CMC control” value [6] of the same compound?
The value was “significant increase”.

And the “LCT mRNA expression in duodenal tissue relative to CMC control” value [6]?
Its value is “significant increase”.

What about the “LCT mRNA expression in jejunal tissue relative to CMC control” value [6] of the same compound?
The value was “not”.

What about the “LCT mRNA expression relative to control (qPCR)” value ([1]; 1 mM) of the same compound?
Its value is “as efficiently as 1 mM GED”.

What about the “increase in LCT activity over control levels, compared to 1 mM GED” value ([3]; Caco-2 cells, 1 mM) of the same compound?
Its value is 2 fold.

What about the “LCT activity in Caco-2 cells” value ([3]; concentrations of 100 mM or more) of the same compound?
The value was “significantly increased”.

Which “ability of GED to induce increased LCT mRNA expression in the presence of the antagonist” value ([1]; GED plus GW9662) does the source give for `O=C(Nc1ccccc1)c1cc([N+](=O)[O-])ccc1Cl` [GW9662] here?
Its value is “markedly reduced”.

How did the “glucose uptake of Caco-2 cells” value [7] turn out when `CCc1ccc(CCOc2ccc(CC3SC(=O)NC3=O)cc2)nc1` (stereo not drawn) [Pioglitazone, pioglitazone] was run?
The value was “did not significantly alter”.

And the “Fold Lactase RNA” value ([2]; 1 μM)?
Its value is 17.9 fold.

What about the “Fold Lactase RNA” value ([2]; 1 μM, listed as Pio) of the same compound?
Its value is 17.93 fold.

What about the “LCT activity compared to untreated cells” value ([3]; Caco-2 cells, 1 μM, vs DMSO) of the same compound?
The value was over 2 fold.
